Columns and labels:
Type in all cases: physicochemical
[1] = Oscillatory rheology of peptide hydrogels (formation, shear-thin/recovery, UV photodisruption); settings: for Storage modulus (G′) of formed gel, regime I time sweep: 1% w/v peptide, pH 7.4, 6 rad/s, 0.2% strain, APC1 after 30 minutes; for Onset of gelation after triggering: regime I
Description: Oscillatory rheology was employed to study the rheological behavior of each gel under experimental conditions that mimic its use during the anastomosis procedure. Here, the storage modulus (G′), a measure of the gels' mechanical rigidity, is monitored in the rheometer under environmental conditions that mimic: (1) the initial (sol-gel) formation of the hydrogel in the syringe; (2) shear thinning of the material as it passes through the syringe needle during injection with subsequent hydrogel recovery in the vessel lumen; and (3) the disruption of the gel network (gel-sol) by UV photolysis after suturing. Monitoring gel behavior in a rheometer, although not exactly capturing the gel's response during the actual anastomosis procedure, allows quantitative and reproducible measurement of gel mechanical properties under highly controlled conditions. […] In regime I, the rate of hydrogel formation (sol-gel) is assessed in a time-sweep experiment that monitors the evolution of G′ after peptide folding and assembly is triggered for a 1% w/v solution of peptide. […] After completion of the initial time sweep, 1000% strain is applied to the material for 30 seconds in regime II to mimic syringe delivery of the gel. This application of strain results in an immediate decrease in G′ indicative of shear thinning that results in a viscous gel capable of flow. After the 30 seconds, the applied strain is decreased to 0.2% and the material is allowed to recover. […] Lastly, using an optically clear parallel plate in the rheometer, the recovered hydrogel is subjected to irradiation by UV light (365 nm) for the first 10 minutes of regime III, where the effect of photolysis on the storage modulus is monitored over time. […] Importantly, irradiation by UV rapidly disrupts the gel network affording a viscous material, which should be capable of dissolution when exposed to the shear of blood flow. Independent frequency- and strain-sweep measurements were also performed as shown in FIGS. 14A-14B and FIGS. 15A-15B.
Application of 1000% strain in the first 30 sec. of regime II quickly thins the APC2 gel. However, the resulting viscous material is unable to self-heal effectively and recovers only about 5% of its original mechanical rigidity. Finally, irradiation in regime III disrupts the weakly recovered gel. Although APC2 is initially able to form a very rigid gel, its inability to recover after being shear thinned precludes it use in the anastomosis procedure. […] Here, incorporation of the cage near the strand termini of the hairpin hampers the ability of the network to recover. Based on this rheological assessment, the APC1 gel was chosen for further study.
Oscillatory Rheology. Rheology experiments were performed on an AR-G2 Rheometer (TA Instruments, DE) equipped with a 25 mm stainless steel parallel plate geometry using a 0.5 mm gap height. A 2 wt % peptide solution was prepared by dissolving lyophilized peptide in water and chilling on ice. An equal volume of chilled 100 mM BTP, 300 mM NaCl, pH 7.4 buffer was added and gently mixed, then immediately transferred to the rheometer plate equilibrated at 5° C. In separate experiments, APC1 gels were prepared in syringe, or as a preformed slab, and incubated for 1 hour at 37° C. Gels were then shear-thinned delivered, or transferred as an intact gel slab, to the rheometer plate, respectively. A temperature ramp from 5° C. to the desired temperature (25° C. or 37° C.) over 100 seconds was performed, followed by a 60 minute dynamic time sweep using an angular frequency of 6 rads and application of 0.2% strain to monitor the storage (G′) and loss (G″) modulus of the hydrogel. The resulting hydrogel was further evaluated by performing a frequency sweep from 0.1 to 100 rads and a strain sweep at 6 rads from 0.1% to 1000% strain. Oil was placed around the sample and on the plate to prevent evaporation. […]

[2] = UV photolysis of the indoline cage followed by absorbance at 248 nm; settings: absorbance at 248 nm during irradiation
Description: FIGS. 6A and 6B test that assertion by following the fate of both the 4-methoxy-7-nitroindoline (MNI) group as well as the caged peptide during photolysis. In FIG. 6A, the absorbance of APC1 at 248 nm is followed as a function of time during irradiation. Absorbance at this wavelength is mainly due to the intact indoline cage. […] In FIG. 6B, photolysis of the caged peptide is followed by RP-HPLC. […] Mass spectroscopy was used to confirm the identity of both species.

[3] = Circular dichroism spectroscopy of peptide folding and assembly; settings: for Folding state by CD under gelation conditions / Folding state by CD in water: 1% w/v; for Folding state by CD under gelation conditions: pH 7.4, 150 mM NaCl, 25 or 37° C.; for Folding state by CD in water: 5° C.; for Temperature needed to induce folding and assembly: pH 7.4 buffer with NaCl, ellipticity at 216 nm vs temperature
Protocol: The ability of APC1 and APC2 to fold and associate into β-sheet rich assemblies was monitored using circular dichroism (CD) spectroscopy. In water at 5° C., the CD spectra of 1% w/v solutions of APC1 and APC2 indicate that the peptides are unfolded under these conditions (FIG. 4A). […] The NaCl screens the lysine point charges and increasing the temperature drives the hydrophobic effect, both of which favor folding and assembly. The exact temperatures needed to induce folding and assembly of each peptide were determined by monitoring the mean ellipticity at 216 nm as a function of temperature as shown in FIG. 13. In all the CD experiments, self-supporting hydrogels of both peptides (pH 7.4, 150 mM NaCl) form directly in the cuvette after folding is triggered. The same procedure can be used to form the gels directly in a syringe. […] Also evident in the spectra are absorptions due to the indoline cage, which occur in the near UV-CD (240-380 nm). […] However, when the peptides fold and assemble, the indoline ring is placed into a chiral environment, such as that provided by the fibril's hydrophobic interior. […] Importantly, it also supports the assertion that if the glutamate's negative point-charge were to be unmasked when the peptides are in the folded and assembled fibrillar state, that this event should be disruptive.
Circular Dichroism (CD). CD spectra of peptide hydrogels were collected on an AVIV 410 spectropolarimeter (AVIV Biomedical Inc., NJ). For wavelength spectra of APC1 and APC2 in water, a 1 wt % solution of peptide was prepared by dissolving lyophilized peptide in water at 5° C. The peptide solution was transferred to a 0.1 mm path length cylindrical cell and placed in the spectrometer sample holder equilibrated at 5° C. For temperature-dependent folding of 1 wt % hydrogels, a 2 wt % peptide solution was first prepared by dissolving lyophilized peptide in water and chilling on ice. Then, an equal volume of chilled 100 mM BTP, 300 mM NaCl, pH 7.4 buffer was added, gently mixed, and quickly transferred to a 0.1 mm path length cylindrical cell and placed in the spectrometer sample holder equilibrated at 5° C. The CD spectra were collected from 200-260 nm or 200-400 nm as a function of temperature at 5 degree increments from 5-80° C. with 10 min equilibration at each temperature. For UV photolysis of 1% w/v hydrogels, the solution was prepared in a manner identical to the folding studies and placed in the spectrometer at 25° C. or 37° C. for 30 minutes. The hydrogel within the cylindrical cell was irradiated for the specified time interval, followed by recording the mean residue ellipticity at 216 nm. For APC1, irradiation and spectra were obtained at 10 second intervals for the first 60 seconds, then at 1 minute intervals for a total of 5 minutes. For APC2, irradiation and spectra were obtained at 1 minute intervals for a total of 15 minutes. At the final time point, a wavelength spectrum from 200-400 nm of each peptide was obtained. Peptide concentration was determined by UV spectroscopy using ε220nm=16448 M^−1cm^−1 for cAPC1 and cAPC2 and ε220nm=31144 M^−1cm^−1 for APC1 and APC2. The mean residue ellipticity [θ] was calculated from [θ]=(θobs/10 lc)/r, where θobs is the measured ellipticity in degrees, l is the path length in centimeters, c is the concentration in molar, and r is the number of residues in the sequence. Each CD spectra shown is representative of three individual experiments, where each data point represents the average of 30 measurements, with a variance in ellipticity of 0.2 millidegrees at each wavelength.

Storage modulus (G′) of formed gel, regime I time sweep [1] | Onset of gelation after triggering ([1]; 1% w/v) | Storage modulus (G′) after UV irradiation, regime III ([1]; 365 nm, 10 minutes, recovered 1% w/v gel) | Storage modulus (G′) recovered after shear thinning ([1]; 1000% strain for 30 seconds, then 0.2% strain, 1% w/v) | Irradiation time to almost complete photolysis of the indoline cage [2] | Folding state by CD under gelation conditions [3] | Folding state by CD in water [3] | Temperature needed to induce folding and assembly [3] | Substance
~2,500 Pa | within the first few minutes | ~180 Pa | 1900 Pa | 90 s | β-sheet secondary structure | unfolded | 25 °C | Ac-VKVKVKGKV^DPPTKZEVKVKV-NH2 [APC1]
20,000 Pa | significant lag phase | – | – | – | β-sheet secondary structure | unfolded | 37 °C | VKVKGKVKV^DPPTKVEZKVKV [APC2]
